PMC9913023, “Repositioning linifanib as a potent anti-necroptosis agent for sepsis” (Cell Death Discovery, 2023)

Target: T1, RIPK1 (receptor-interacting serine/threonine-protein kinase 1) (Homo sapiens, UniProt Q13546)
T1 sequence (Q13546 1-671): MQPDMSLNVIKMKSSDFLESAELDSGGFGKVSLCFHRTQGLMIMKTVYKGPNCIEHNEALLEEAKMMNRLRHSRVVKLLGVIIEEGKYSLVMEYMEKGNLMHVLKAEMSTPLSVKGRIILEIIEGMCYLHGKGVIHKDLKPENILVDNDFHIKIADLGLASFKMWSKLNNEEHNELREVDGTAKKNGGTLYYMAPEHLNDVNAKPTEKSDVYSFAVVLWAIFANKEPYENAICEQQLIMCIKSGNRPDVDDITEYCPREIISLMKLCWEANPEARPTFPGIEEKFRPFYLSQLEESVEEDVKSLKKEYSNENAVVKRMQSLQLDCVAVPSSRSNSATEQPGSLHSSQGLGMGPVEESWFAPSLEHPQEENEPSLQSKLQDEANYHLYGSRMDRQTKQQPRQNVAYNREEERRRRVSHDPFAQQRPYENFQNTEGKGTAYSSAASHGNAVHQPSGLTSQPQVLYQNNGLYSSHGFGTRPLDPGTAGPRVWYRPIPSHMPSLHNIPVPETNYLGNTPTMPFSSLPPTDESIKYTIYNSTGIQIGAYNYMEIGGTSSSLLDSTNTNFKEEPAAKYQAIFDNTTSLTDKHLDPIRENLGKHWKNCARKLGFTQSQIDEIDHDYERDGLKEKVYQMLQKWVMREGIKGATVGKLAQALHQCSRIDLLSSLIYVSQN
Experiment: ADP-Glo kinase assay with recombinant human RIPK1 ([…])
Format: biochemical

IC50: 670 nM
Structure (SMILES): Cc1ccc(F)c(NC(=O)Nc2ccc(-c3cccc4[nH]nc(N)c34)cc2)c1 [linifanib]
